Test results reported in patent US7273848B2, “Apolipoprotein A-I agonists and their use to treat dyslipidemic disorders” (priority 1997, dated 2007).
Non-standard residues stand in square brackets, D forms with d. Residues, ends and D or L forms follow the SMILES beside them. No end group written: not given here. Orn = NCCC[C@H](N)C(=O)O; Aib = CC(C)(N)C(=O)O

Molecular target: T1, LCAT (purified from human plasma) (Homo sapiens, UniProt P04180)
T1 construct: from tissue; host or cells: human plasma
T1 sequence (P04180 25-440): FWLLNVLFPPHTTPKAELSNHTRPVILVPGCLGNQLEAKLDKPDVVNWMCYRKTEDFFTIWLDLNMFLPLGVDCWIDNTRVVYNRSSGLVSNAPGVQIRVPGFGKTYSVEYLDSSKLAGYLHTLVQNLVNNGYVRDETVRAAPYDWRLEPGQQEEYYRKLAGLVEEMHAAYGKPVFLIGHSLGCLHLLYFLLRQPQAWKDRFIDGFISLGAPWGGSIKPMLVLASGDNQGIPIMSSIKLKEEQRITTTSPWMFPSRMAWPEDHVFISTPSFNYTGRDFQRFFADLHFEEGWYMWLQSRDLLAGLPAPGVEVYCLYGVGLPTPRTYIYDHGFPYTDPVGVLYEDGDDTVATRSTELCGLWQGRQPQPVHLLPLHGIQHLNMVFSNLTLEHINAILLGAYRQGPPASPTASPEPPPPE
Assay: LCAT activation assay
Assay type: biochemical
Conditions: LCAT activation as compared with native human ApoA-I (= 100%), equivalent masses
Procedure, shortened: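 Activity was expressed as percentage conversion of radiolabelled cholesterol to cholesteryl ester, normalised to native ApoA-I as 100%. LCAT purified from human plasma was added to peptide-preincubated EPC or POPC/cholesterol (20:1) small unilamellar vesicles at pH 7.4. Specific activity is the peptide concentration reaching the conversion plateau at a fixed timepoint.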

Row | ACTIVITY (%) LCAT | ACTIVITY (%) LCAT (listed as N-acetylated, C-amidated peptide 18AM4) | Molecule
1 | 0% | – | CC(C)C[C@H](NC(=O)[C@H](CCCCN)NC(=O)[C@H](CCC(N)=O)NC(=O)[C@H](CCCCN)NC(=O)C(C)(C)NC(=O)[C@H](C)NC(=O)[C@H](CCC(=O)O)NC(=O)[C@H](CC(C)C)NC(=O)[C@H](CCC(=O)O)NC(=O)[C@H](CCC(=O)O)NC(=O)[C@H](CC(N)=O)NC(=O)[C@H](CC(C)C)NC(=O)[C@H](CCCCN)NC(=O)[C@H](CCC(=O)O)NC(=O)[C@H](CCCNC(=N)N)NC(=O)[C@H](Cc1ccccc1)NC(=O)[C@H](CCC(=O)O)NC(=O)[C@H](CC(=O)O)NC(=O)[C@H](CC(C)C)NC(=O)[C@@H](NC(=O)[C@@H]1CCCN1)C(C)C)C(=O)N[C@@H](CCCCN)C(=O)O [compound 119, PVLDEFREKLNEELEAXKQKLK] (H-PVLDEFREKLNEELEA[Aib]KQKLK-OH)
2 | 0% | – | CC(C)C[C@H](NC(=O)[C@H](CCCCN)NC(=O)[C@H](CCC(N)=O)NC(=O)[C@H](CCCCN)NC(=O)[C@H](CC(C)C)NC(=O)C(C)(C)NC(=O)[C@H](CCC(=O)O)NC(=O)[C@H](CC(C)C)NC(=O)[C@H](CCC(=O)O)NC(=O)[C@H](CCC(=O)O)NC(=O)[C@H](CC(N)=O)NC(=O)[C@H](CC(C)C)NC(=O)[C@H](CCCCN)NC(=O)[C@H](CCC(=O)O)NC(=O)[C@H](CCCNC(=N)N)NC(=O)[C@H](Cc1ccccc1)NC(=O)[C@H](CCC(=O)O)NC(=O)[C@H](CC(=O)O)NC(=O)[C@H](CC(C)C)NC(=O)[C@@H](NC(=O)[C@@H]1CCCN1)C(C)C)C(=O)N[C@@H](CCCCN)C(=O)O [compound 120, PVLDEFREKLNEELEXLKQKLK] (H-PVLDEFREKLNEELE[Aib]LKQKLK-OH)
3 | 3% | – | CC(C)C[C@H](NC(=O)[C@H](C)NC(=O)[C@H](CC(=O)O)NC(=O)[C@H](CC(C)C)NC(=O)[C@H](CC(C)C)NC(=O)[C@H](CCCNC(=N)N)NC(=O)[C@H](CCC(=O)O)NC(=O)[C@H](CC(C)C)NC(=O)[C@H](CC(C)C)NC(=O)[C@H](CC(N)=O)NC(=O)[C@H](CCC(=O)O)NC(=O)[C@H](Cc1ccccc1)NC(=O)[C@H](CC(C)C)NC(=O)[C@H](CCC(=O)O)NC(=O)[C@H](CC(C)C)NC(=O)[C@@H](NC(=O)[C@@H]1CCCN1)C(C)C)C(=O)N[C@@H](CCC(N)=O)C(=O)N[C@@H](CCCN)C(=O)N[C@@H](CCCN)C(=O)N[C@@H](CC(C)C)C(=O)N[C@@H](CCCN)C(=O)O [compound 185, PVLELFENLLERLLDALQOOLO] (H-PVLELFENLLERLLDALQ[Orn][Orn]L[Orn]-OH)
4 | 45% | – | CC(=O)N1CCC[C@H]1C(=O)N[C@H](C(=O)N[C@@H](CC(C)C)C(=O)N[C@@H](CC(=O)O)C(=O)N[C@@H](CC(C)C)C(=O)N[C@@H](Cc1ccccc1)C(=O)N[C@@H](CCCNC(=N)N)C(=O)N[C@@H](CCC(=O)O)C(=O)N[C@@H](CC(C)C)C(=O)N[C@@H](CC(C)C)C(=O)N[C@@H](CCC(=O)O)C(=O)N[C@@H](CCC(=O)O)C(=O)N[C@@H](CC(C)C)C(=O)N[C@@H](CCCN)C(=O)N[C@@H](CCC(N)=O)C(=O)N[C@@H](CCCN)C(=O)N[C@@H](CC(C)C)C(=O)N[C@@H](CCCN)C(N)=O)C(C)C [compound 211, PVLDLFRELLEELOQOLO] (Ac-PVLDLFRELLEEL[Orn]Q[Orn]L[Orn]-NH2)
5 | 43% | – | CC(=O)N1CCC[C@H]1C(=O)N[C@H](C(=O)N[C@@H](CC(C)C)C(=O)N[C@@H](CC(=O)O)C(=O)N[C@@H](CC(C)C)C(=O)N[C@@H](Cc1ccccc1)C(=O)N[C@@H](CCCN)C(=O)N[C@@H](CCC(=O)O)C(=O)N[C@@H](CC(C)C)C(=O)N[C@@H](CC(C)C)C(=O)N[C@@H](CCC(=O)O)C(=O)N[C@@H](CCC(=O)O)C(=O)N[C@@H](CC(C)C)C(=O)N[C@@H](CCCN)C(=O)N[C@@H](CCC(N)=O)C(=O)N[C@@H](CCCN)C(=O)N[C@@H](CC(C)C)C(=O)N[C@@H](CCCCN)C(N)=O)C(C)C [compound 212, PVLDLFOELLEELOQOLK] (Ac-PVLDLF[Orn]ELLEEL[Orn]Q[Orn]LK-NH2)
6 | 39% | – | AVLDLFRELLNELLEALKQKLK [compound 29]
7 | 11% | < 11% | Ac-EWLEAFYKKVLEKLKELF-NH2 [compound 239, reference compound]
8 | 42% | – | Ac-PALELFKDLLEEFRQRLK-NH2 [compound 213]
9 | 70% | – | Ac-PALELFKDLLEELRQKLR-NH2 [compound 202]
10 | 48% | – | Ac-PALELFKDLLEELRQRLK-NH2 [compound 208]
11 | 0% | – | Ac-PVLDLFREGLEELKQKLK-NH2 [compound 228]
12 | 0% | – | Ac-PVLDLFRELGEELKQKLK-NH2 [compound 227]
13 | 0% | – | Ac-PVLDLFRELLEEGKQKLK-NH2 [compound 229]
14 | 81% | – | Ac-PVLDLFRELLEELKNKLK-NH2 [compound 196]
15 | 29% | – | Ac-PVLDLFRELLNELLQKLK-NH2 [compound 218]
16 | 60% | – | Ac-PVLDLFREWLEELKQKLK-NH2 [compound 205]
17 | 3% | – | DWFKAFYDKFFEKFKEFF [peptide 247, reference compound]
18 | 8% | – | DWFKAFYDKVFEKFKEFF [peptide 241, reference compound]
19 | 7% | – | GIKKFLGSIWKFIKAFVG [peptide 242, reference compound]
20 | 67% | – | GVLDLFRELLNEGLEALKQKLK [compound 13]
21 | 58% | – | GVLDLFRELLNELLEALKQKLK [peptide 18]
22 | 105% | – | GVLDLFRELLNELLEALKQKLKK [peptide 2]
23 | 10% | – | GVLELFLNLLERLLDALQKKLK [compound 177]
24 | 17% | – | LVLDLFRELLNELLEALKQKLK [compound 59]
25 | 54% | – | PLLELFKELLQELLEALKQKLK [peptide 23]

Row | Molecule | ACTIVITY (%) LCAT | ACTIVITY (%) LCAT (listed as N-acetylated, C-amidated peptide 18AM4)
26 | CC(C)C[C@H](NC(=O)[C@H](C)NC(=O)[C@H](CC(=O)O)NC(=O)[C@H](CC(C)C)NC(=O)[C@H](CC(C)C)NC(=O)[C@H](CCCN)NC(=O)[C@H](CCC(=O)O)NC(=O)[C@H](CC(C)C)NC(=O)[C@H](CC(C)C)NC(=O)[C@H](CC(N)=O)NC(=O)[C@H](CCC(=O)O)NC(=O)[C@H](Cc1ccccc1)NC(=O)[C@H](CC(C)C)NC(=O)[C@H](CCC(=O)O)NC(=O)[C@H](CC(C)C)NC(=O)[C@@H](NC(=O)[C@@H]1CCCN1)C(C)C)C(=O)N[C@@H](CCC(N)=O)C(=O)N[C@@H](CCCN)C(=O)N[C@@H](CCCN)C(=O)N[C@@H](CC(C)C)C(=O)N[C@@H](CCCN)C(=O)O [compound 170, PVLELFENLLEOLLDALQOOLO] (H-PVLELFENLLE[Orn]LLDALQ[Orn][Orn]L[Orn]-OH) | 17% | –
27 | CC(C)C[C@@H](NC(=O)[C@@H](C)NC(=O)[C@@H](CC(=O)O)NC(=O)[C@@H](CC(C)C)NC(=O)[C@@H](CC(C)C)NC(=O)[C@@H](CCCNC(=N)N)NC(=O)[C@@H](CCC(=O)O)NC(=O)[C@@H](CC(C)C)NC(=O)[C@@H](CC(C)C)NC(=O)[C@@H](CC(N)=O)NC(=O)[C@@H](CCC(=O)O)NC(=O)[C@@H](Cc1ccccc1)NC(=O)[C@@H](CC(C)C)NC(=O)[C@@H](CCC(=O)O)NC(=O)[C@@H](CC(C)C)NC(=O)[C@H](NC(=O)[C@H]1CCCN1)C(C)C)C(=O)N[C@H](CCC(N)=O)C(=O)N[C@H](CCCCN)C(=O)N[C@H](CCCCN)C(=O)N[C@H](CC(C)C)C(=O)N[C@H](CCCCN)C(=O)O [compound 174, pvlelfenllerlldalqkklk] (H-[dP][dV][dL][dE][dL][dF][dE][dN][dL][dL][dE][dR][dL][dL][dD][dA][dL][dQ][dK][dK][dL][dK]-OH) | 13% | –
28 | CC(=O)N1CCC[C@@H]1C(=O)N[C@H](C(=O)N[C@@H](CC(C)C)C(=O)N[C@@H](CC(=O)O)C(=O)N[C@@H](CC(C)C)C(=O)N[C@@H](Cc1ccccc1)C(=O)N[C@@H](CCCNC(=N)N)C(=O)N[C@@H](CCC(=O)O)C(=O)N[C@@H](CC(C)C)C(=O)N[C@@H](CC(C)C)C(=O)N[C@@H](CCC(=O)O)C(=O)N[C@@H](CCC(=O)O)C(=O)N[C@@H](CC(C)C)C(=O)N[C@@H](CCCCN)C(=O)N[C@@H](CCC(N)=O)C(=O)N[C@@H](CCCCN)C(=O)N[C@@H](CC(C)C)C(=O)N[C@@H](CCCCN)C(N)=O)C(C)C [compound 214] (Ac-[dP]VLDLFRELLEELKQKLK-NH2) | 39% | –
29 | AVLELFENLLERLLDALQKKLK [peptide 153] | 49% | –
30 | Ac-AVLDLFRELLEELKQKLK-NH2 [compound 203] | 66% | –
31 | Ac-DVLDLFRELLEELKQKLK-NH2 [compound 221] | 12% | –
32 | Ac-GVLDLFRELLEELKQKLK-NH2 [compound 198] | 80% | –
33 | Ac-NVLDLFRELLEELKQKLK-NH2 [compound 200] | 75% | –
34 | Ac-PLLDLFKELLEELKQKLK-NH2 [compound 201] | 74% | –
35 | Ac-PLLELLKELLEELKQKLK-NH2 [compound 206] | 57% | –
36 | Ac-PVLDFFRELLEELKQKLK-NH2 [compound 204] | 63% | –
37 | Ac-PVLDLLRELLEELKQKLK-NH2 [compound 191] | 100% | –
38 | Ac-PVLELFKELLEELKQKLK-NH2 [compound 195] | 87% | –
39 | Ac-PVLELLKELLEELKQKLK-NH2 [compound 207] | 50% | –
40 | PLLELFENLLEKLLDALQKKLK [compound 183] | 6% | –
41 | PLLELFENLLERLLDALQKKLK [peptide 150] | 57% | –
